Measurements reported in PMC10035947, “Development of novel anilinoquinazoline-based carboxylic acids as non-classical carbonic anhydrase IX and XII inhibitors” (Journal of Enzyme Inhibition and Medicinal Chemistry, 2023).
Where two headings read alike, the source gives them in different places.

Assays:
Experiment in all cases: NCI SRB assay
MDA-MB-435 = type: cell-based; details: for CC50: read-out: LC50 (the source's name)
SK-MEL-2 = type: cell-based, human
SK-MEL-28 = type: cell-based, human; details: for CC50: read-out: LC50 (the source's name)
SK-MEL-5 = type: cell-based, human
UACC-62 = type: cell-based, human
OVCAR-5 = type: cell-based, human; details: for CC50: read-out: LC50 (the source's name)
OVCAR-8 = type: cell-based, human; details: for CC50: read-out: LC50 (the source's name)
SK-OV-3 = type: cell-based, human; details: for CC50: read-out: LC50 (the source's name)
786-0 = type: cell-based, human; details: for CC50: read-out: LC50 (the source's name)
A498 = type: cell-based, human; details: for CC50: read-out: LC50 (the source's name)
HS 578 T = type: cell-based, human; details: for CC50: Hs-578T, read-out: LC50 (the source's name)

Cc1ccc(-c2nc(Nc3ccccc3C(=O)O)c3ccccc3n2)cc1 [6b, 2-((2-(p-Tolyl)quinazolin-4-yl)amino)benzoic acid]
CC50 (MDA-MB-435; Homo sapiens, MDA-MB-435, MDA-MB-435, 5-dose): > 100 µM
GI% (MDA-MB-435; MDA-MB-435, 10 μM): 77%
Growth Percent (MDA-MB-435; MDA-MB-435, 1.00E-5 Molar): 23.38%
TGI (MDA-MB-435; MDA-MB-435, 5-dose): 87.2 µM
TGI (MDA-MB-435; MDA-MB-435, 5-dose, listed as D - 835857): 8.72E-5 Molar
CC50 (MDA-MB-435; MDA-MB-435, 5-dose): < 100 µM
GI50 (SK-MEL-2; Homo sapiens, SK-MEL-2, SK-MEL-2, 5-dose): 3.65 µM
CC50 (SK-MEL-2; Homo sapiens, SK-MEL-2, 5-dose, read-out: LC50 (the source's name)): 83.5 µM
GI% (SK-MEL-2; SK-MEL-2, 10 μM): 94%
Growth Percent (SK-MEL-2; SK-MEL-2, 1.00E-5 Molar): 5.75%
GI50 (SK-MEL-2; SK-MEL-2, 5-dose): 3.7 µM
TGI (SK-MEL-2; SK-MEL-2, 5-dose): 15.6 µM
TGI (SK-MEL-2; SK-MEL-2, 5-dose, listed as D - 835857): 1.56E-5 Molar
CC50 (SK-MEL-28; Homo sapiens, SK-MEL-28, SK-MEL-28, 5-dose): > 100 µM
GI50 (SK-MEL-28; Homo sapiens, SK-MEL-28, 5-dose): 15.9 µM
GI% (SK-MEL-28; SK-MEL-28, 10 μM): 71%
Growth Percent (SK-MEL-28; SK-MEL-28, 1.00E-5 Molar): 28.75%
TGI (SK-MEL-28; SK-MEL-28, 5-dose): 97.4 µM
TGI (SK-MEL-28; SK-MEL-28, 5-dose, listed as D - 835857): 9.74E-5 Molar
CC50 (SK-MEL-28; SK-MEL-28, 5-dose): < 100 µM
GI50 (SK-MEL-5; Homo sapiens, SK-MEL-5, SK-MEL-5, 5-dose): 5.32 µM
CC50 (SK-MEL-5; Homo sapiens, SK-MEL-5, 5-dose, read-out: LC50 (the source's name)): 57.5 µM
GI% (SK-MEL-5; SK-MEL-5, 10 μM): 124%
Growth Percent (SK-MEL-5; SK-MEL-5, 1.00E-5 Molar): -24.79%
GI50 (SK-MEL-5; SK-MEL-5, 5-dose): 5.3 µM
TGI (SK-MEL-5; SK-MEL-5, 5-dose): 20.3 µM
TGI (SK-MEL-5; SK-MEL-5, 5-dose, listed as D - 835857): 2.03E-5 Molar
GI50 (UACC-62; Homo sapiens, UACC-62, 5-dose): 10.2 µM
CC50 (UACC-62; Homo sapiens, UACC-62, 5-dose, read-out: LC50 (the source's name)): 71.6 µM
GI% (UACC-62; UACC-62, 10 μM): 89%
Growth Percent (UACC-62; UACC-62, 1.00E-5 Molar): 11.04%
TGI (UACC-62; UACC-62, 5-dose): 27.0 µM
TGI (UACC-62; UACC-62, 5-dose, listed as D - 835857): 2.70E-5 Molar
CC50 (OVCAR-5; Homo sapiens, OVCAR-5, OVCAR-5, 5-dose): > 100 µM
GI50 (OVCAR-5; Homo sapiens, OVCAR-5, 5-dose): 21.8 µM
GI% (OVCAR-5; OVCAR-5, 10 μM): 34%
Growth Percent (OVCAR-5; OVCAR-5, 1.00E-5 Molar): 65.92%
TGI (OVCAR-5; OVCAR-5, 5-dose): 68.9 µM
TGI (OVCAR-5; OVCAR-5, 5-dose, listed as D - 835857): 6.89E-5 Molar
CC50 (OVCAR-5; OVCAR-5, 5-dose): < 100 µM
CC50 (OVCAR-8; Homo sapiens, OVCAR-8, OVCAR-8, 5-dose): > 100 µM
GI50 (OVCAR-8; Homo sapiens, OVCAR-8, 5-dose): 18.2 µM
GI% (OVCAR-8; OVCAR-8, 10 μM): 69%
Growth Percent (OVCAR-8; OVCAR-8, 1.00E-5 Molar): 30.51%
TGI (OVCAR-8; OVCAR-8, 5-dose): <100 µM
TGI (OVCAR-8; OVCAR-8, 5-dose, listed as D - 835857): > 1.00E-4 Molar
CC50 (OVCAR-8; OVCAR-8, 5-dose): < 100 µM
CC50 (SK-OV-3; Homo sapiens, SK-OV-3, SK-OV-3, 5-dose): > 100 µM
GI50 (SK-OV-3; Homo sapiens, SK-OV-3, 5-dose): 11.9 µM
GI% (SK-OV-3; SK-OV-3, 10 μM): 69%
Growth Percent (SK-OV-3; SK-OV-3, 1.00E-5 Molar): 31.32%
TGI (SK-OV-3; SK-OV-3, 5-dose): 55.3 µM
TGI (SK-OV-3; SK-OV-3, 5-dose, listed as D - 835857): 5.53E-5 Molar
CC50 (SK-OV-3; SK-OV-3, 5-dose): < 100 µM
GI% (786-0; 786-0, 10 μM): 81%
Growth Percent (786-0; 786-0, 1.00E-5 Molar): 18.67%
TGI (786-0; 786-0, 5-dose): <100 µM
TGI (786-0; 786-0, 5-dose, listed as D - 835857): > 1.00E-4 Molar
CC50 (786-0; 786-0, 5-dose): < 100 µM
CC50 (786-0; Homo sapiens, 786-0, 786-0, 5-dose): > 100 µM
GI50 (786-0; Homo sapiens, 786-0, 5-dose): 17.1 µM
GI% (A498; A498, 10 μM): 78%
Growth Percent (A498; A498, 1.00E-5 Molar): 21.64%
TGI (A498; A498, 5-dose): 58.1 µM
TGI (A498; A498, 5-dose, listed as D - 835857): 5.81E-5 Molar
CC50 (A498; A498, 5-dose): < 100 µM
CC50 (A498; Homo sapiens, A498, A498, 5-dose): > 100 µM
GI50 (A498; Homo sapiens, A498, 5-dose): 19.9 µM
GI% (HS 578 T; HS 578 T, 10 μM): 109%
Growth Percent (HS 578 T; HS 578T, 1.00E-5 Molar): -9.53%
TGI (HS 578 T; HS 578 T, 5-dose): 67.0 µM
TGI (HS 578 T; HS 578T, 5-dose): 6.70E-5 Molar
CC50 (HS 578 T; Homo sapiens, HS 578 T, 5-dose): < 100 µM
CC50 (HS 578 T; Homo sapiens, HS 578T, 5-dose): > 100 µM
GI50 (HS 578 T; Homo sapiens, HS 578 T, 5-dose): 10.2 µM
